According to ChEMBL document CHEMBL5291721, “A preclinical secondary pharmacology resource illuminates target-adverse drug reaction associations of marketed drugs” (Nat Commun, 2023):

Experiments:
[1] = target: T1, Androgen receptor (Rattus norvegicus, UniProt P15207); type: functional
T1 sequence (P15207 whole entry): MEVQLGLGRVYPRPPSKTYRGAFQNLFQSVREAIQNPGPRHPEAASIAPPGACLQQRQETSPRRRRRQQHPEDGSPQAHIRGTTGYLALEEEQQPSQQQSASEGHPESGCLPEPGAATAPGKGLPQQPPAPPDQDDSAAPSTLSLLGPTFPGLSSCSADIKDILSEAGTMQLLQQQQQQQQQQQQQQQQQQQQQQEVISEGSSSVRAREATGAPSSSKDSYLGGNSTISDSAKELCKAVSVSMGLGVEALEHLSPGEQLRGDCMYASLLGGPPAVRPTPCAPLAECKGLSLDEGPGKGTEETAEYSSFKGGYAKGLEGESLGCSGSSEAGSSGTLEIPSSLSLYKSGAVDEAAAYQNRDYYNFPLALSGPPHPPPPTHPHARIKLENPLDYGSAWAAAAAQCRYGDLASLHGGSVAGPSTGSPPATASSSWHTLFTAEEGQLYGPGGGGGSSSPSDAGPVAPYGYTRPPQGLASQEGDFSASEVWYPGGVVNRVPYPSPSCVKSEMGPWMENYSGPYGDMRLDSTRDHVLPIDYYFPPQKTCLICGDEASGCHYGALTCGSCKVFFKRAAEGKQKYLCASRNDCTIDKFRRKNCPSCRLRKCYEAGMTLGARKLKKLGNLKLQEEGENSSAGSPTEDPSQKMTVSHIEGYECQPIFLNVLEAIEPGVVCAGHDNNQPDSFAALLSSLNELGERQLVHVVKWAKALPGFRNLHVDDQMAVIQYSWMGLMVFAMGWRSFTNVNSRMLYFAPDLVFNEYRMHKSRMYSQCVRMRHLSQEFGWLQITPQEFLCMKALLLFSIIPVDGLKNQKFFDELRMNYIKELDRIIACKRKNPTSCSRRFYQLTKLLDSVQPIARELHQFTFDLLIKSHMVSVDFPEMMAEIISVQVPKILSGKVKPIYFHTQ

[2] = target: D(1A) dopamine receptor (Homo sapiens, UniProt P21728); type: functional, cell-based
Sequence of D(1A) dopamine receptor (P21728 whole entry): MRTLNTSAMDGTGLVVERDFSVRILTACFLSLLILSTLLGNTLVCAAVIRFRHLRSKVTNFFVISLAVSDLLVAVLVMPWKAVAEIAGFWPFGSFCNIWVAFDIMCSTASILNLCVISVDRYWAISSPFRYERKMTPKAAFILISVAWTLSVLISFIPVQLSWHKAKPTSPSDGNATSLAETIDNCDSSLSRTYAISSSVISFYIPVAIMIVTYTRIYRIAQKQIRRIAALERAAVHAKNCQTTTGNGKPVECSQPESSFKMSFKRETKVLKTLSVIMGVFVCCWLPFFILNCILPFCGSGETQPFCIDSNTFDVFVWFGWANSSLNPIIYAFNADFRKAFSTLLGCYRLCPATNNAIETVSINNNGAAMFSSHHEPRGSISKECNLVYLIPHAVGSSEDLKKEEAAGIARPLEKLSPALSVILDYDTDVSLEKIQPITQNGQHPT

[3] = target: Receptor tyrosine-protein kinase erbB-2 (Homo sapiens, UniProt P04626); type: functional
Sequence of Receptor tyrosine-protein kinase erbB-2 (P04626 whole entry): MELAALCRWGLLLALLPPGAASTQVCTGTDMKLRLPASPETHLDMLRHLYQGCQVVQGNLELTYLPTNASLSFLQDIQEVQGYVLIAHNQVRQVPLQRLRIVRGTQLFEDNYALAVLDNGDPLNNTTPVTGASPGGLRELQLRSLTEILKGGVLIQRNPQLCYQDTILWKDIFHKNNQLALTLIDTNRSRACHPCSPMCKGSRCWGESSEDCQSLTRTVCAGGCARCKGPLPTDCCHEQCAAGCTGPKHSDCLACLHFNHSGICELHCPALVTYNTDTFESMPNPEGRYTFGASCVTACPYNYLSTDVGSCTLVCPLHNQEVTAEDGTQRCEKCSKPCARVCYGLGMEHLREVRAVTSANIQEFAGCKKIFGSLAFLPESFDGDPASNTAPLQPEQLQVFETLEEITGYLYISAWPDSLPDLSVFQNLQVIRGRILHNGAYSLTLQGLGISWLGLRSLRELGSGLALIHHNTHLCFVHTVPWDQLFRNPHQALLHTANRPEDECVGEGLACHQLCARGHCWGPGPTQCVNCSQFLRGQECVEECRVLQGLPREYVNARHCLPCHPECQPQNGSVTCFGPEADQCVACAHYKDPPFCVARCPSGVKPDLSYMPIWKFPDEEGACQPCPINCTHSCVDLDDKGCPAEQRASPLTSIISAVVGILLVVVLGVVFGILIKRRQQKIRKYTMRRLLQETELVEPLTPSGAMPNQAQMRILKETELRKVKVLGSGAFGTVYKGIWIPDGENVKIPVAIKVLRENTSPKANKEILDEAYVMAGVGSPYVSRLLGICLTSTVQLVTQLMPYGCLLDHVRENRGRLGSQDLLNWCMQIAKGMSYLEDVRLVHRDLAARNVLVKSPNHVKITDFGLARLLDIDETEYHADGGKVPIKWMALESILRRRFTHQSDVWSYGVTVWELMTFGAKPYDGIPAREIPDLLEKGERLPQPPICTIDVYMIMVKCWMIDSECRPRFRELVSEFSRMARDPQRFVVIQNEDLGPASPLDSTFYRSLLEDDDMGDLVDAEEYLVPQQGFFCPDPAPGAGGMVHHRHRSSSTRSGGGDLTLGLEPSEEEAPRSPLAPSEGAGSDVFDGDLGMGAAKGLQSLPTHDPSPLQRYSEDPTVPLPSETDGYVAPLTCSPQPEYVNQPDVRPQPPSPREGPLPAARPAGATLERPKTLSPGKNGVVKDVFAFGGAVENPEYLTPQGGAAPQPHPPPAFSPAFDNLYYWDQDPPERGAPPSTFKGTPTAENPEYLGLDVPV

[4] = target: T2, Muscarinic acetylcholine receptor M4 (Homo sapiens, UniProt P08173)
T2 sequence (P08173 whole entry): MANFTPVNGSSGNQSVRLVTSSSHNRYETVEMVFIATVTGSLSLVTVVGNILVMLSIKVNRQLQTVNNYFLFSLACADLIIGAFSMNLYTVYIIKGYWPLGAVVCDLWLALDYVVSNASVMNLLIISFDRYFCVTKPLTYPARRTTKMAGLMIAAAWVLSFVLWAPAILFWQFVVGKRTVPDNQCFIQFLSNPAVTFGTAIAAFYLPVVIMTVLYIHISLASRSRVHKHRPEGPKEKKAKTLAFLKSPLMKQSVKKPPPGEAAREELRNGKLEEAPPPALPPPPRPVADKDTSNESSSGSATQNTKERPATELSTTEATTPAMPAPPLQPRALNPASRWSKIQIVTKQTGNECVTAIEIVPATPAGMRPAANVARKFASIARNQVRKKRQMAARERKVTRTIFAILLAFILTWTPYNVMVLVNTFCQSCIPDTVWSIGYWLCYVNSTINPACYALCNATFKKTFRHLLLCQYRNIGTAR

[5] = target: D(1B) dopamine receptor (Homo sapiens, UniProt P21918)
Sequence of D(1B) dopamine receptor (P21918 whole entry): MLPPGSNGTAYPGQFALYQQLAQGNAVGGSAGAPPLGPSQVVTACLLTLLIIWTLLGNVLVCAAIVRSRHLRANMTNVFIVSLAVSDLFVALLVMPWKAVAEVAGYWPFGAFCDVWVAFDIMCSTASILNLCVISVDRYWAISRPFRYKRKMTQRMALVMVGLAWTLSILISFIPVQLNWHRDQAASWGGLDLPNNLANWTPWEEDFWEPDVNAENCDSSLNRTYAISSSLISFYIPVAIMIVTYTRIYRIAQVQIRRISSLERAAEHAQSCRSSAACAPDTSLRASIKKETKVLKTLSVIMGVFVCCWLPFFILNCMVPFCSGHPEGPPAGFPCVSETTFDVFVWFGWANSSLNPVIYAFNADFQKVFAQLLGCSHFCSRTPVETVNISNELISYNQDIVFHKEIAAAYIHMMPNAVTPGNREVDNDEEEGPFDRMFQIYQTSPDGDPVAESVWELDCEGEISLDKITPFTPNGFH

[6] = target: T3, 5-hydroxytryptamine receptor 1A (Homo sapiens, UniProt P08908)
T3 sequence (P08908 whole entry): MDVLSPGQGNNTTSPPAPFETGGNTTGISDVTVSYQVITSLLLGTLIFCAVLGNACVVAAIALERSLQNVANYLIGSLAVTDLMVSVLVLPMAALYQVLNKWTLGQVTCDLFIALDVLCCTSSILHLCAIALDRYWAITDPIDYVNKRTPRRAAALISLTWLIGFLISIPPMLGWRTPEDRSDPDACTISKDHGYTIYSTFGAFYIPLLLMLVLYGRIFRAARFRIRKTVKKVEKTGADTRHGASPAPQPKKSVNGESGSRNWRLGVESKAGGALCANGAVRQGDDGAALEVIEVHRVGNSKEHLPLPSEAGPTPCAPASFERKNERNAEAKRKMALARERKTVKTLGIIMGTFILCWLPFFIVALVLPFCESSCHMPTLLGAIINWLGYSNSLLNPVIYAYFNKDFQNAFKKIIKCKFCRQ

[7] = target: T4, Alpha-1A adrenergic receptor (Homo sapiens, UniProt P35348)
T4 sequence (P35348 whole entry): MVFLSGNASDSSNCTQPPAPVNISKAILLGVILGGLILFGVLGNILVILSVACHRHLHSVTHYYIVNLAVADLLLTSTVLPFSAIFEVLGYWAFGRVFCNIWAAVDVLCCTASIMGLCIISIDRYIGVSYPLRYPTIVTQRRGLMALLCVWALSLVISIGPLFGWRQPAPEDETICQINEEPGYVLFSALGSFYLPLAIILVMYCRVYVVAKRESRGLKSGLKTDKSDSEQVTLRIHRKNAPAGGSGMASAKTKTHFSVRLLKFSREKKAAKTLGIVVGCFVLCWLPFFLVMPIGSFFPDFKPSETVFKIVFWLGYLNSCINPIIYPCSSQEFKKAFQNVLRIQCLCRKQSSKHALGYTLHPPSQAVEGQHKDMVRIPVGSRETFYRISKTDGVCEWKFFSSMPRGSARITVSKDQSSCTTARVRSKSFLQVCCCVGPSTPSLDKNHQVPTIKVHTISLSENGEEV

[8] = target: T5, Peroxisome proliferator-activated receptor alpha (Homo sapiens, UniProt Q07869); type: functional
T5 sequence (Q07869 whole entry): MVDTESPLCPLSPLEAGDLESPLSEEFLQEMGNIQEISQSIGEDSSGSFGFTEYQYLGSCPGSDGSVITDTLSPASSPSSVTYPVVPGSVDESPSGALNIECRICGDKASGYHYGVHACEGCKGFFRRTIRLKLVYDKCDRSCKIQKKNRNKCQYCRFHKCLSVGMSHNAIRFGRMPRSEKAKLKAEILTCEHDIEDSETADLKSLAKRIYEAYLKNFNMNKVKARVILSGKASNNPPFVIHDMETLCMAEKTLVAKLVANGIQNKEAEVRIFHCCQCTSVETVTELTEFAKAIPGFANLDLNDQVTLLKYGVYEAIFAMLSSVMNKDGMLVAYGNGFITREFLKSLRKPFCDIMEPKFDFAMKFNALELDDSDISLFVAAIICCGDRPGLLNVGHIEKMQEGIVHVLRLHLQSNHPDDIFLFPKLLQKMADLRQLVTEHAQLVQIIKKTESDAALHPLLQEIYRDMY

[9] = target: T5, Peroxisome proliferator-activated receptor alpha; type: functional; remark: listed apart in the source
Also: assay procedure not described here.

## CO/N=C(\C(=O)N[C@@H]1C(=O)N2C(C(=O)[O-])=C(C[N+]3(C)CCCC3)CS[C@H]12)c1csc(N)n1
[1]
  AC50: > 30 µM
[2]
  AC50: > 300 µM
[3]
  AC50: > 300 µM

## COC(=O)N[C@H](C(=O)N1CCC[C@H]1c1nc(-c2ccc(-c3ccc(-c4c[nH]c([C@@H]5CCCN5C(=O)[C@@H](NC(=O)OC)C(C)C)n4)cc3)cc2)c[nH]1)C(C)C
[1]
  AC50: > 30 µM

## CCOC(=O)[C@H](CCc1ccccc1)N[C@@H](C)C(=O)N1CCC[C@H]1C(=O)O
[4]
  AC50: > 10 µM
[5]
  AC50: > 10 µM

## Nc1nc(N)c2nc(-c3ccccc3)c(N)nc2n1
[1]
  AC50: > 3 µM
[4]
  AC50: > 10 µM
[5]
  AC50: > 10 µM
[6]
  AC50: > 30 µM

## CC(=O)c1ccc2c(c1)N(CCCN1CCN(CCO)CC1)c1ccccc1S2 [ACETOPHENAZINE]
[2]
  AC50: 1.11 µM

## Oc1ncnc2[nH]ncc12 [ALLOPURINOL]
[6]
  AC50: > 30 µM

## CC(=O)OCC(=O)[C@@]1(O)CC[C@H]2[C@@H]3CCC4=CC(=O)CC[C@]4(C)[C@H]3C(=O)C[C@@]21C [CORTISONE ACETATE]
[7]
  AC50: > 30 µM

## COC(=O)[C@@H]1CC2=CC(=O)CC[C@]2(C)[C@@]23O[C@@H]2C[C@@]2(C)[C@@H](CC[C@@]24CCC(=O)O4)[C@H]13 [EPLERENONE]
[2]
  AC50: > 30 µM
[3]
  AC50: > 30 µM

## CCC(=O)O[C@H]1[C@H](O[C@@H]2[C@@H](C)[C@H](O[C@H]3C[C@@](C)(OC)[C@@H](O)[C@H](C)O3)[C@@H](C)C(=O)O[C@H](CC)[C@@](C)(O)[C@H](O)[C@@H](C)C(=O)[C@H](C)C[C@@]2(C)O)O[C@H](C)C[C@@H]1N(C)C [ERYTHROMYCIN PROPIONATE]
[7]
  AC50: > 30 µM

## C#C[C@]1(O)CC[C@H]2[C@@H]3CCc4cc(O)ccc4[C@H]3CC[C@@]21C [ETHINYL ESTRADIOL]
[8]
  AC50: > 30 µM
[9]
  AC50: > 30 µM

## NC(N)=Nc1nc(CSCCC(N)=NS(N)(=O)=O)cs1 [FAMOTIDINE]
[4]
  AC50: > 10 µM
[5]
  AC50: > 10 µM

## CC(C)C(=O)Nc1ccc([N+](=O)[O-])c(C(F)(F)F)c1 [FLUTAMIDE]
[6]
  AC50: > 30 µM

## COc1ccc2c(c1)C(=O)N(CCc1ccc(S(=O)(=O)NC(=O)NC3CCCCC3)cc1)C(=O)C2(C)C [GLIQUIDONE]
[1]
  AC50: > 30 µM
[8]
  AC50: > 30 µM
[9]
  AC50: > 30 µM

## NS(=O)(=O)c1cc2c(cc1Cl)NCNS2(=O)=O [HYDROCHLOROTHIAZIDE]
[4]
  AC50: > 10 µM
[5]
  AC50: > 10 µM

## CC(C)Cc1ccc(CC(=O)O)cc1 [IBUFENAC]
[2]
  AC50: > 30 µM
[3]
  AC50: > 30 µM

## CC(C)NNC(=O)c1ccncc1 [IPRONIAZID]
[2]
  AC50: > 30 µM
[3]
  AC50: > 30 µM

## OC[C@@H](O)[C@@H](O)[C@H](O)[C@H](O)CO [MANNITOL]
[7]
  AC50: > 30 µM

## NC(=O)c1cnccn1 [PYRAZINAMIDE]
[6]
  AC50: > 30 µM

## O=C(NC[C@H]1CN(c2ccc(N3CCOCC3=O)cc2)C(=O)O1)c1ccc(Cl)s1 [RIVAROXABAN]
[8]
  AC50: > 30 µM
[9]
  AC50: > 30 µM

## Cc1cc2c(cc1CC(=O)c1sccc1S(=O)(=O)Nc1onc(C)c1Cl)OCO2 [SITAXENTAN]
[7]
  AC50: > 30 µM

## CCCS(=O)(=O)Nc1ccc(F)c(C(=O)c2c[nH]c3ncc(-c4ccc(Cl)cc4)cc23)c1F [VEMURAFENIB]
[1]
  AC50: > 30 µM

## O=C(CCCCCCC(=O)Nc1ccccc1)NO [VORINOSTAT]
[4]
  AC50: > 10 µM
